The values below come from patent US11051515B2, “3-acyl-benzamides and their use as herbicides” (Bayer Aktiengesellschaft, priority 2017, dated 2021).

The subject of experiment [1] is HORMU. As to the kind of experiment: Post-emergence action against HORMU. The format is in vivo, Hordeum murinum. To be noted: dosage 80 g/ha. The method in brief: (§1)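 Post-emergence foliar spray on greenhouse plants at the one-leaf stage, using wettable-powder or emulsion-concentrate formulations in water (600 to […], plus 0.2% wetting agent). Damage scored by eye roughly 3 weeks later against untreated plants: 0% = like control, 100% = dead.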

Experiment [2] deals with ALOMY. As to the kind of experiment: Pre-emergence action against ALOMY. The format is in vivo, Alopecurus myosuroides. The following applies: Alopecurus myosuroides, 504 h; dosage 320 g/ha; pre-emergence; scored visually after 3 weeks vs untreated controls; 100% = plants have died, 0% = like control plants; read-out: Pre-emergence action against ALOMY (herbicidal activity in percent). The method in brief:
(§2)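 Seeds sown in sandy loam in wood-fiber pots and covered with soil. Greenhouse growth; visual damage scored after 3 weeks versus untreated controls (100% = dead, 0% = like control).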

Experiment [3] deals with LOLRI. In words: Pre-emergence action against LOLRI. The format is in vivo, Lolium rigidum. To be noted: Lolium rigidum, 504 h, dosage 320 g/ha, scored visually after 3 weeks vs untreated controls, read-out: Pre-emergence action against LOLRI (herbicidal activity). An outline of the steps: as §2
The subject of experiment [4] is AMARE. In words: Post-emergence action against AMARE. To be noted: Amaranthus retroflexus, 504 h; post-emergence, dosage 80 g/ha, visual assessment about 3 weeks after treatment vs untreated controls; read-out: Post-emergence action against AMARE (herbicidal action in percent). It counts as in vivo, Amaranthus retroflexus. The method in brief:
as §1

Experiment [5] deals with POLCO. As to the kind of experiment: Pre-emergence action against POLCO. The format is in vivo, Polygonum convolvulus. The following applies: Fallopia convolvulus, 504 h; Dosage 320 g/ha, pre-emergence. An outline of the steps:
as §2

Experiment [6] has as its system LOLRI. As to the kind of experiment: Post-emergence action against LOLRI. The format is in vivo, Lolium rigidum. The following applies: Lolium rigidum, 504 h, dosage 80 g/ha, visual assessment about 3 weeks after treatment vs untreated controls, read-out: Post-emergence action against LOLRI (herbicidal action in percent). An outline of the steps:
as §1

Experiment [7] deals with SETVI. As to the kind of experiment: Pre-emergence action against SETVI. The format is in vivo, Setaria viridis. To be noted: Setaria viridis, 504 h; pre-emergence, dosage 320 g/ha, scored visually after 3 weeks vs untreated controls; read-out: SETVI (Table B8, pre-emergence herbicidal activity). An outline of the steps: as §2
Experiment [8] concerns ECHCG. As to the kind of experiment: Post-emergence action against ECHCG. The format is in vivo, Echinochloa crus-galli. The following applies: Echinochloa crus-galli, 504 h; post-emergence, dosage 80 g/ha, visual assessment about 3 weeks after treatment vs untreated controls; read-out: Post-emergence action against ECHCG (herbicidal action in percent). The method in brief:
as §1

The test system of experiment [9] is CYPES. In words: Pre-emergence action against CYPES. The format is in vivo, Cyperus esculentus. The following applies: Cyperus esculentus, 504 h; pre-emergence, dosage 320 g/ha, scored visually after 3 weeks vs untreated controls; read-out: Pre-emergence action against CYPES (herbicidal activity). An outline of the steps: as §2
In experiment [10] the test system is HORMU. In words: Pre-emergence action against HORMU. It counts as in vivo, Hordeum murinum. The following applies: Hordeum murinum, 504 h, Dosage 320 g/ha. An outline of the steps:
as §2

For experiment [11], the system named is DIGSA. As to the kind of experiment: Pre-emergence action against DIGSA. The format is in vivo, Digitaria sanguinalis. The following applies: dosage 320 g/ha, scored visually after 3 weeks vs untreated controls. The method in brief:
as §2

Experiment [12] deals with DIGSA. In words: Post-emergence action against DIGSA. The following applies: dosage 80 g/ha, visual assessment about 3 weeks after treatment vs untreated controls. It counts as in vivo, Digitaria sanguinalis. The method in brief: as §1

In the case of `CSc1c(C(=O)Nc2nnnn2C)ccc(C(F)F)c1C(=O)C1CC1` [1-67], the “Post-emergence action against HORMU” value in [1] turned out to be 100. Also, the pest or weed control at 320 g/ha in [2] came to 100%; in experiment [3], 100%; in experiment [5], 100%; in [7] it was 100%; in experiment [9], 90%; in [10], 80%. Moreover, the pest or weed control at 80 g/ha in experiment [4], in experiment [6] and in [8] was 100% each time.
For the compound `Cn1nnnc1NC(=O)c1ccc(C(F)F)c(C(=O)C2CC2)c1Cl` [1-168], in [1], the “Post-emergence action against HORMU” value was 100. Also, the pest or weed control at 320 g/ha in experiment [2] stood at 100%; in [3] it was 100%; in [5] it was 90%; in experiment [7], 100%; in [9], 90%; in experiment [10] it was 100%. In addition, the pest or weed control at 80 g/ha in [4], in experiment [6] and in experiment [8] was 100% throughout.
With `CC(=O)c1c(I)ccc(C(=O)Nc2nnnn2C)c1Cl` [1-192], in experiment [1], the “Post-emergence action against HORMU” value amounted to 100. The pest or weed control at 320 g/ha in [2] was found to be 100%; in experiment [3] it was 100%; in [5], 80%; in experiment [7] it was 100%; in experiment [9] it was 90%; in experiment [10] it was 100%. Moreover, the pest or weed control at 80 g/ha in [4], in [6] and in [8] was 100% each time.
With `Cn1nnnc1NC(=O)c1ccc(C(F)(F)F)c(C(=O)C2CC2)c1C1CC1` [1-233], in experiment [11], the “Pre-emergence action against DIGSA (herbicidal activity)” value was determined as 100%. In experiment [1], the “Post-emergence action against HORMU” value was 80. Further, the pest or weed control at 320 g/ha in experiment [2] worked out at 100%; in experiment [3], 100%; in [5], 80%; in [7], 100%; in [10], 100%. In addition, the pest or weed control at 80 g/ha in [4] was found to be 90%; in experiment [6] it was 90%; in experiment [8] it was 100%. Further, the “Post-emergence action against DIGSA (herbicidal action in percent)” value in [12] stood at 100%.
For `CCn1nnnc1NC(=O)c1ccc(C(F)(F)F)c(C(=O)C2CC2)c1C` [2-18, 3-(cyclopropylcarbonyl)-N-(1-ethyl-1H-tetrazol-5-yl)-2-methyl-4-(trifluoromethyl)benzamide], the “Post-emergence action against HORMU” value in experiment [1] stood at 100. Moreover, the pest or weed control at 320 g/ha came to 100% in [2]; 100% in experiment [3]; 90% in experiment [5]; 100% in experiment [7]; 100% in experiment [9]; 100% in [10]. In addition, the pest or weed control at 80 g/ha in experiment [4], in experiment [6] and in [8] was 100% in each case.
